Assay results: the NIST ThermoML archive (doi:10.1021/je3001969)

Test: xn = mol fraction of the nth substance listed
Conditions: Liquid, Pycnometric method

[C-]#[O+] [carbon monoxide] + COC=O
Conditions	mass density [kg/m3]
293.2 K, x1 = 0.0184	976.3
293.2 K, x1 = 0.0214	976.1
293.2 K, x1 = 0.0274	974.9
293.2 K, x1 = 0.0342	971.3
293.2 K, x1 = 0.0445	964.7
293.2 K, x1 = 0.054	954.7
293.2 K, x1 = 0.0735	932.5
293.2 K, x1 = 0.0914	911.2
313.2 K, x1 = 0.012	972.1
313.2 K, x1 = 0.0196	971.5
313.2 K, x1 = 0.0259	969.3
313.2 K, x1 = 0.0358	962.4
313.2 K, x1 = 0.0473	950.8
313.2 K, x1 = 0.0598	937.3
313.2 K, x1 = 0.0691	924.7
313.2 K, x1 = 0.0812	904.3
333.2 K, x1 = 0.0101	969.2
333.2 K, x1 = 0.0136	968.7
333.2 K, x1 = 0.0204	967.6
333.2 K, x1 = 0.0286	960.7
333.2 K, x1 = 0.0412	947.8
333.2 K, x1 = 0.0496	937.5
333.2 K, x1 = 0.0613	923
333.2 K, x1 = 0.0744	901.3
353.2 K, x1 = 0.0063	964.6
353.2 K, x1 = 0.01	964.2
353.2 K, x1 = 0.0159	963.2
353.2 K, x1 = 0.0224	956.8
353.2 K, x1 = 0.0297	948.7
353.2 K, x1 = 0.0401	935.3
353.2 K, x1 = 0.0549	916.8
353.2 K, x1 = 0.0696	895.8

[C-]#[O+] [carbon monoxide] + CCC(=O)O
Conditions	mass density [kg/m3]
293.2 K, x1 = 0.0156	988.2
293.2 K, x1 = 0.0211	983.1
293.2 K, x1 = 0.0237	978.3
293.2 K, x1 = 0.0298	970.5
293.2 K, x1 = 0.0353	962.3
293.2 K, x1 = 0.0418	950.4
293.2 K, x1 = 0.0487	937.2
293.2 K, x1 = 0.0596	919.7
313.2 K, x1 = 0.0121	985.4
313.2 K, x1 = 0.0146	978.3
313.2 K, x1 = 0.0202	972.6
313.2 K, x1 = 0.0269	965.1
313.2 K, x1 = 0.0311	957.4
313.2 K, x1 = 0.0387	945.2
313.2 K, x1 = 0.0465	931.2
313.2 K, x1 = 0.0557	913.3
333.2 K, x1 = 0.0105	977.4
333.2 K, x1 = 0.0125	971.2
333.2 K, x1 = 0.0179	964.9
333.2 K, x1 = 0.024	958
333.2 K, x1 = 0.028	949.8
333.2 K, x1 = 0.0341	938.5
333.2 K, x1 = 0.0418	925.3
333.2 K, x1 = 0.0508	907.7
353.2 K, x1 = 0.0082	968.4
353.2 K, x1 = 0.0108	963
353.2 K, x1 = 0.0165	956.7
353.2 K, x1 = 0.0225	952.3
353.2 K, x1 = 0.0267	944.7
353.2 K, x1 = 0.0331	933.4
353.2 K, x1 = 0.0407	919.6
353.2 K, x1 = 0.0478	902.3
